The values that follow come from patent publication US5403840A, “Inclusion complexes of N-ethoxycarbonyl 1-3-morpholino-sydnonimine or salts formed with cyclodextrin-derivatives, preparation thereof and pharmaceutical compositions containing the same” (Chinoin Gyogyszer-Es Vegyeszeti Termekek Gyar Rt., priority 1990, dated 1995).

Each structure is given as a SMILES string. Converted amounts (≈) assume the structure as drawn.

The conditions of series [1]: percutaneous, cited from earlier work.
Series [2] in a line: Membrane permeation test, dialysis profile of Molsidomin-β-CD granule. The settings on record: Molsidomin 1 mg/ml or equivalent granule, 100% diffusion = 0.33 mg/ml. The series is classed as physicochemical. How it is done: Visking-type cellophane membrane (average pore diameter 24 angstroms) was used. Aqueous solutions of Molsidomin at a concentration of 1 and 2 mg/ml were put in the donor cell, while distilled water was placed in the receptor compartment of the membrane permeation cell apparatus.
Dialysis profile of Molsidomin-β-CD granule was examined using the same permeation cell as described above.
Molsidomin at a concentration of 1 mg/ml and equivalent amount of complex granule were used in the experiment
100% diffusion corresponding to 0.33 mg/ml Molsidomin concentration in the receptor cell.

The conditions of series [3]: oral; cited from earlier work.
For series [4] the following is noted: compared to the organic nitrates; cited from earlier work.
The conditions of series [5]: 25° C.; cited from earlier work.
For series [6], the system named is angina pectoris. The note with it: cited from earlier work.
For series [7] the following is noted: Molsidomin alone, no cyclodextrin; 37 °C; donor 1 and 2 mg/ml.
Procedure: Visking-type cellophane membrane (average pore diameter 24 angstroms) was used. Aqueous solutions of Molsidomin at a concentration of 1 and 2 mg/ml were put in the donor cell, while distilled water was placed in the receptor compartment of the membrane permeation cell apparatus. The solutions were stirred by magnetic stirrers and were kept at 37+1° C. At appropriate time intervals samples were pipetted from the receptor solutions and concentration of Molsidomin permeated from the donor cell was measured by UV-spectrophotometry. The test was repeated in the presence of different cyclodextrins at different concentrations in the donor cell compartment.
For series [8] the following is noted: pH value of 5-7; cited from earlier work.

Regarding `CCOC(=O)[N-]c1cn(N2CCOCC2)n[o+]1` [Molsidomin, N-ethoxycarbonyl-3-morpholino-sydnonimine], in series [1] (Molsidomin itself), the “bioavailability through the skin” value was 4%; the “resorption through the skin” value was “resorbed slowly and to a small extent”. The “resorption of Molsidomin relative to propylene-glycol” value in series [1] is “of similar extent, and of similar quantity”. For the same compound, the “Concentration of Molsidomin in the receptor cell” value (shortened to “Concentration of Molsidomin”) in series [2] (1 hour) was determined as 200 µg/mL. Besides, the “Concentration of Molsidomin” value in series [2] (2 hours) is 290 µg/mL. The “Concentration of Molsidomin” value in series [2] (3 hours) was determined as 320 µg/mL. For the same compound, the “Concentration of Molsidomin” value in series [2] (4 hours) stood at 340 µg/mL. In series [3], the “absorption along the whole Gi-tract” value was “fairly absorbed” and the bioavailability entry is listed as “satisfactory”. In addition, in series [4], the habit forming entry is “does not become habit forming”, the headaches result is given as “rarely induces headaches which are also less severe” and the side-effects entry is “less side-effects”. Besides, the solubility in water in series [5] is 18 mg/mL (≈ 74.3 mM). In addition, in series [6] (compared to the organic nitrates), the “duration of effect compared to the organic nitrates” value was “more lasting”. Also, in series [6] (oral, 2 mg of the active ingredient), the “duration of effect of oral preparation” value is 3 to 5 h. Also, in series [7], the “Diffusion half life (T 50%) of Molsidomin” value stood at 1.0 h. In addition, in series [8], the stability in water result is given as “stable”.
